Values joined by “and” are separate entries in the source; they are usually repeats but may differ in a detail not shown here. Equal entries are not always repeated.
Columns and labels:
Type in all cases: functional
[1] = test system: UO-31; experiment: Growth inhibition of human UO-31 cells assessed as growth percentage at 10 uM incubated for 48 hrs by sulforhodamine B assay relative to control; conditions: read-out: Activity
[2] = test system: TK-10; experiment: Growth inhibition of human TK-10 cells assessed as growth percentage at 10 uM incubated for 48 hrs by sulforhodamine B assay relative to control; conditions: read-out: Activity
[3] = test system: OVCAR-4; experiment: Growth inhibition of human OVCAR-4 cells assessed as growth percentage at 10 uM incubated for 48 hrs by sulforhodamine B assay relative to control; conditions: read-out: Activity
[4] = test system: LOX IMVI; experiment: Growth inhibition of human LOX IMVI cells assessed as growth percentage at 10 uM incubated for 48 hrs by sulforhodamine B assay relative to control; conditions: read-out: Activity
[5] = test system: SNB-19; experiment: Growth inhibition of human SNB-19 cells assessed as growth percentage at 10 uM incubated for 48 hrs by sulforhodamine B assay relative to control; conditions: read-out: Activity
[6] = test system: NCI/ADR-RES; experiment: Growth inhibition of human NCI/ADR-RES cells incubated for 48 hrs by sulforhodamine B assay; conditions: for CC50: read-out: LC50 (the source's name)
[7] = test system: OVCAR-3; experiment: Growth inhibition of human OVCAR-3 cells incubated for 48 hrs by sulforhodamine B assay; conditions: for TGI: OVCAR-3; for CC50: OVCAR-3, read-out: LC50 (the source's name)
[8] = test system: SK-MEL-28; experiment: Growth inhibition of human SK-MEL-28 cells incubated for 48 hrs by sulforhodamine B assay
[9] = test system: MDA-MB-435; experiment: Growth inhibition of human MDA-MB-435 cells incubated for 48 hrs by sulforhodamine B assay; conditions: for TGI: MDA-MB-435; for CC50: MDA-MB-435, read-out: LC50 (the source's name)
[10] = test system: U-251; experiment: Growth inhibition of human U-251 cells incubated for 48 hrs by sulforhodamine B assay; conditions: for CC50: read-out: LC50 (the source's name)
[11] = test system: HT-29; experiment: Growth inhibition of human HT-29 cells incubated for 48 hrs by sulforhodamine B assay; conditions: for GI50: HT-29; for CC50: HT-29, read-out: LC50 (the source's name)
[12] = test system: NCI-H23; experiment: Growth inhibition of human NCI-H23 cells incubated for 48 hrs by sulforhodamine B assay
[13] = test system: NCI-H226; experiment: Growth inhibition of human NCI-H226 cells incubated for 48 hrs by sulforhodamine B assay; conditions: for TGI: NCI-H226; for CC50: read-out: LC50 (the source's name)
[14] = test system: MOLT-4; experiment: Growth inhibition of human MOLT-4 cells incubated for 48 hrs by sulforhodamine B assay
[15] = test system: CCRF-CEM; experiment: Growth inhibition of human CCRF-CEM cells incubated for 48 hrs by sulforhodamine B assay
[16] = test system: T47D; experiment: Growth inhibition of human T47D cells assessed as growth percent at 0.1 uM incubated for 48 hrs by sulforhodamine B assay relative to control; conditions: read-out: Activity
[17] = test system: MDA-MB-468; experiment: Growth inhibition of human MDA-MB-468 cells assessed as growth percentage at 100 uM incubated for 48 hrs by sulforhodamine B assay relative to control; conditions: read-out: Activity
[18] = test system: DU-145; experiment: Growth inhibition of human DU-145 cells assessed as growth percentage at 100 uM incubated for 48 hrs by sulforhodamine B assay relative to control; conditions: read-out: Activity
[19] = test system: SK-MEL-5; experiment: Growth inhibition of human SK-MEL-5 cells assessed as growth percentage at 100 uM incubated for 48 hrs by sulforhodamine B assay relative to control; conditions: read-out: Activity
[20] = test system: SNB-75; experiment: Growth inhibition of human SNB-75 cells assessed as growth percentage at 100 uM incubated for 48 hrs by sulforhodamine B assay relative to control; conditions: read-out: Activity
[21] = test system: KM12; experiment: Growth inhibition of human KM12 cells assessed as growth percentage at 100 uM incubated for 48 hrs by sulforhodamine B assay relative to control; conditions: read-out: Activity
[22] = test system: NCI-H322M; experiment: Growth inhibition of human NCI-H322M cells assessed as growth percentage at 100 uM incubated for 48 hrs by sulforhodamine B assay relative to control; conditions: read-out: Activity
[23] = test system: M14; experiment: Growth inhibition of human M14 cells assessed as growth percentage at 1 uM incubated for 48 hrs by sulforhodamine B assay relative to control; conditions: read-out: Activity
[24] = test system: LOX IMVI; experiment: Growth inhibition of human LOX IMVI cells assessed as growth percentage at 1 uM incubated for 48 hrs by sulforhodamine B assay relative to control; conditions: read-out: Activity
[25] = test system: KM12; experiment: Growth inhibition of human KM12 cells assessed as growth percentage at 1 uM incubated for 48 hrs by sulforhodamine B assay relative to control; conditions: read-out: Activity
[26] = test system: A549; experiment: Growth inhibition of human A549/ATCC cells assessed as growth percentage at 1 uM incubated for 48 hrs by sulforhodamine B assay relative to control; conditions: read-out: Activity
[27] = test system: MOLT-4; experiment: Growth inhibition of human MOLT-4 cells assessed as growth percentage at 1 uM incubated for 48 hrs by sulforhodamine B assay relative to control; conditions: read-out: Activity
[28] = test system: UO-31; experiment: Growth inhibition of human UO-31 cells assessed as growth percentage at 0.1 uM incubated for 48 hrs by sulforhodamine B assay relative to control; conditions: read-out: Activity
[29] = test system: OVCAR-8; experiment: Growth inhibition of human OVCAR-8 cells assessed as growth percentage at 0.1 uM incubated for 48 hrs by sulforhodamine B assay relative to control; conditions: read-out: Activity
[30] = test system: MDA-MB-435; experiment: Growth inhibition of human MDA-MB-435 cells assessed as growth percentage at 0.1 uM incubated for 48 hrs by sulforhodamine B assay relative to control; conditions: read-out: Activity
[31] = test system: NCI-H23; experiment: Growth inhibition of human NCI-H23 cells assessed as growth percentage at 0.1 uM incubated for 48 hrs by sulforhodamine B assay relative to control; conditions: read-out: Activity
[32] = test system: NCI-H226; experiment: Growth inhibition of human NCI-H226 cells assessed as growth percentage at 0.1 uM incubated for 48 hrs by sulforhodamine B assay relative to control; conditions: read-out: Activity
[33] = test system: RXF 393; experiment: Growth inhibition of human RXF 393 cells assessed as growth percentage at 0.01 uM incubated for 48 hrs by sulforhodamine B assay relative to control; conditions: read-out: Activity
[34] = test system: OVCAR-4; experiment: Growth inhibition of human OVCAR-4 cells assessed as growth percentage at 0.01 uM incubated for 48 hrs by sulforhodamine B assay relative to control; conditions: read-out: Activity
[35] = test system: UACC-257; experiment: Growth inhibition of human UACC-257 cells assessed as growth percentage at 0.01 uM incubated for 48 hrs by sulforhodamine B assay relative to control; conditions: read-out: Activity
[36] = test system: SNB-19; experiment: Growth inhibition of human SNB-19 cells assessed as growth percentage at 0.01 uM incubated for 48 hrs by sulforhodamine B assay relative to control; conditions: read-out: Activity
[37] = test system: NCI-H226; experiment: Growth inhibition of human NCI-H226 cells assessed as growth percentage at 0.01 uM incubated for 48 hrs by sulforhodamine B assay relative to control; conditions: read-out: Activity

Compound: CCCCCCCC(=O)Nc1nc2[nH]c(CN3CCN(Cc4cccc(F)c4)CC3)c(CN3CCN(Cc4cccc(F)c4)CC3)c2c(=O)[nH]1
- growth at 10 µM [1]: -96.5%
- growth at 10 µM [2]: -65%
- growth at 10 µM [3]: -94%
- growth at 10 µM [4]: -88.5%
- growth at 10 µM [5]: -81.6%
- GI50 ([6]; Homo sapiens, NCI/ADR-RES): 1.5 µM
- TGI ([6]; Homo sapiens, NCI/ADR-RES): 3.01 µM
- CC50 ([6]; Homo sapiens, NCI/ADR-RES): 6.04 µM
- GI50 ([7]; 48 h): 0.78 µM
- TGI ([7]; Homo sapiens): 2.17 µM
- GI50 ([7]; Homo sapiens, OVCAR-3, 48 h): 0.781 µM
- CC50 ([7]; Homo sapiens): 5.28 µM
- GI50 [8]: 1.79 µM
- TGI [8]: 3.62 µM
- GI50 ([9]; 48 h): 0.32 µM
- TGI ([9]; Homo sapiens): 1.24 µM
- GI50 ([9]; Homo sapiens, MDA-MB-435, 48 h): 0.317 µM
- CC50 ([9]; Homo sapiens): 3.77 µM
- GI50 ([10]; 48 h): 0.17 µM
- TGI ([10]; 48 h): 0.33 µM
- CC50 ([10]; 48 h): 0.61 µM
- GI50 ([10]; Homo sapiens, U-251, 48 h): 0.172 µM
- TGI ([10]; Homo sapiens, U-251, 48 h): 0.325 µM
- CC50 ([10]; Homo sapiens, U-251, 48 h): 0.614 µM
- GI50 [11]: 0.26 µM
- CC50 [11]: 3.76 µM
- GI50 [12]: 1.86 µM
- LC50 (50% lethal concentration) [12]: 8.02 µM
- TGI [12]: 3.86 µM
- TGI ([13]; Homo sapiens): 3.84 µM
- GI50 ([13]; Homo sapiens, NCI-H226, 48 h): 1.84 µM
- CC50 ([13]; Homo sapiens, NCI-H226, 48 h): 8.04 µM
- GI50 ([14]; 48 h): 0.26 µM
- LC50 (concentration killing 50% of cells) ([14]; 48 h): > 100 µM
- TGI ([14]; 48 h): 0.74 µM
- GI50 ([14]; Homo sapiens, MOLT-4, 48 h): 0.258 µM
- LC50 (concentration killing 50% of cells) ([14]; Homo sapiens, MOLT-4, 48 h): 100 µM
- TGI ([14]; Homo sapiens, MOLT-4, 48 h): 0.736 µM
- GI50 ([15]; 48 h): 0.25 µM
- LC50 ([15]; 48 h): 100 µM and > 1 µM
- GI50 ([15]; Homo sapiens, CCRF-CEM, 48 h): 0.251 µM
- growth at 0.1 µM [16]: 88%
- growth at 100 µM [17]: -75%
- growth at 100 µM [18]: -83%
- growth at 100 µM [19]: -81%
- growth at 100 µM [20]: -99%
- growth at 100 µM [21]: -47%
- growth at 100 µM [22]: -82%
- growth at 1 µM [23]: -47%
- growth at 1 µM [24]: -58%
- growth at 1 µM [25]: 43%
- growth at 1 µM [26]: 8%
- growth at 1 µM [27]: -15%
- growth at 0.1 µM [28]: 84%
- growth at 0.1 µM [29]: 103%
- growth at 0.1 µM [30]: 90%
- growth at 0.1 µM [31]: 100%
- growth at 0.1 µM [32]: 95%
- growth at 0.01 µM [33]: 100%
- growth at 0.01 µM [34]: 98%
- growth at 0.01 µM [35]: 89%
- growth at 0.01 µM [36]: 96%
- growth at 0.01 µM [37]: 94%

Compound: Nc1nc2[nH]c(CN3CCN(c4cc(Cl)cc(Cl)c4)CC3)c(CN3CCN(c4cc(Cl)cc(Cl)c4)CC3)c2c(=O)[nH]1
- growth at 10 µM [1]: 75.1%
- growth at 10 µM [2]: 77.1%
- growth at 10 µM [3]: 65.8%
- growth at 10 µM [4]: 26.3%
- growth at 10 µM [5]: 79.8%
- TGI [6]: 100 µM and > 1 µM
- CC50 [6]: > 100 µM
- TGI ([7]; Homo sapiens): 3.38 µM
- GI50 ([7]; Homo sapiens, OVCAR-3, 48 h): 1.81 µM
- CC50 ([7]; Homo sapiens): 6.28 µM
- GI50 [8]: 1.79 µM
- TGI [8]: 3.62 µM
- TGI ([9]; Homo sapiens): 3.04 µM
- GI50 ([9]; Homo sapiens, MDA-MB-435, 48 h): 1.62 µM
- CC50 ([9]; Homo sapiens): 5.72 µM
- GI50 ([10]; Homo sapiens, U-251, 48 h): 1.67 µM
- TGI ([10]; Homo sapiens, U-251, 48 h): 3.14 µM
- CC50 ([10]; Homo sapiens, U-251, 48 h): 5.9 µM
- GI50 [11]: 1.74 µM
- TGI ([11]; HT-29, 48 h): 3.41 µM
- CC50 [11]: 6.7 µM
- GI50 [12]: 2.03 µM
- TGI [12]: 3.96 µM
- GI50 ([13]; 48 h): 1.58 µM and 15.8 µM
- CC50 ([13]; 48 h): > 100 µM
- TGI ([13]; Homo sapiens): 5.37 µM
- GI50 ([14]; Homo sapiens, MOLT-4, 48 h): 2.58 µM
- TGI ([14]; Homo sapiens, MOLT-4, 48 h): 8.56 µM
- TGI ([15]; Homo sapiens, CCRF-CEM): 5.52 µM
- GI50 ([15]; Homo sapiens, CCRF-CEM, 48 h): 2.07 µM
- growth at 0.1 µM [16]: 90%
- growth at 100 µM [17]: -44%
- growth at 100 µM [18]: -92%
- growth at 100 µM [19]: -61%
- growth at 100 µM [20]: -76%
- growth at 100 µM [21]: -84%
- growth at 100 µM [22]: -54%
- growth at 1 µM [23]: 94%
- growth at 1 µM [24]: 104%
- growth at 1 µM [25]: 99%
- growth at 1 µM [26]: 92%
- growth at 1 µM [27]: 90%
- growth at 0.1 µM [28]: 92%
- growth at 0.1 µM [29]: 97%
- growth at 0.1 µM [30]: 97%
- growth at 0.1 µM [31]: 107%
- growth at 0.1 µM [32]: 89%
- growth at 0.01 µM [33]: 95%
- growth at 0.01 µM [34]: 95%
- growth at 0.01 µM [35]: 96%
- growth at 0.01 µM [36]: 96%
- growth at 0.01 µM [37]: 95%

Reference: ChEMBL document CHEMBL4673219, “Novel 5,6-disubstituted pyrrolo[2,3-d]pyrimidine derivatives as broad spectrum antiproliferative agents: Synthesis, cell based assays, kinase profile and molecular docking study” (Bioorg Med Chem, 2018)
